Test [1] concerns the target Potassium channel subfamily K member 3 (Homo sapiens, UniProt O14649). Description: (§1) In Vitro Electrophysiological Assay: In Vitro Electrophysiological Analysis of the Human TASK-1 and TASK-3 Channels Via Two-Electrode Voltage Clamp Technique in Xenopus laevis OocytesSubsequently, the oocytes were injected with 0.5-5 ng of a cRNA solution coding for TASK-1 or TASK-3. For the electrophysiological analysis of the channel proteins expressed in the oocytes, the two-electrode voltage clamp technique was used. The measurements were conducted at room temperature (21-22° C.) using a Turbo TEC 10CD amplifier (NPI), recorded at 2 kHz and filtered with 0.4 kHz. Substance administration was performed using a gravitation-driven perfusion system. Here, the oocyte is located in a measuring chamber and exposed to the solution stream of 10 ml/min. The level in the measuring chamber is monitored and regulated by sucking off the solution using a peristaltic pump. It is filed as cell-based. A general note: Two-electrode voltage clamp is typically applied to oocytes expressing channels or transporters.

In test [2] the target is Potassium channel subfamily K member 9 (Homo sapiens, UniProt Q9NPC2). Described as §1. It is filed as cell-based.
Sequence of Potassium channel subfamily K member 9 (Q9NPC2 whole entry): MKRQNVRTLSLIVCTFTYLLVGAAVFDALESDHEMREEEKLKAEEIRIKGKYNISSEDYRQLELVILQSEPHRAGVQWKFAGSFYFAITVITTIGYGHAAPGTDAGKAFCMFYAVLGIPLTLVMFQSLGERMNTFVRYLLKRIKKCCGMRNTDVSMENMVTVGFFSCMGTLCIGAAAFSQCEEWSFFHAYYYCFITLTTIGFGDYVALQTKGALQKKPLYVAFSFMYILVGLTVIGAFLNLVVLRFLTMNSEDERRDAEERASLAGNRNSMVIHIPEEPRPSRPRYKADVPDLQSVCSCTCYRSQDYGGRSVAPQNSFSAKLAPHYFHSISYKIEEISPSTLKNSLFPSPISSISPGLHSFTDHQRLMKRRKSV

pIC50: −log10 of the molar value.

Sequence of Potassium channel subfamily K member 3 (O14649 whole entry, the tested form may be a part): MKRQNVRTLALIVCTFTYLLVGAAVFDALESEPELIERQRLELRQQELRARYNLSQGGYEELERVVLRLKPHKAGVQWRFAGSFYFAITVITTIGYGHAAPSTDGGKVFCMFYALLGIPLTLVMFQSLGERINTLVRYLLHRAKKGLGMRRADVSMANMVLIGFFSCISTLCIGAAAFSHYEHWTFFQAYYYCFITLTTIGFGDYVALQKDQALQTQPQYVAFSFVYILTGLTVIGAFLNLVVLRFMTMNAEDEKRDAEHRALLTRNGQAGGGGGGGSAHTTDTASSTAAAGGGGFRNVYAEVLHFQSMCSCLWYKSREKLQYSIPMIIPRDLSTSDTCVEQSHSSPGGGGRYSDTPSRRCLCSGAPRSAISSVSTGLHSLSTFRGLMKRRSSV

On to `CCOc1ccccc1NC(=O)N1CC2CN(Cc3c(-c4ccc(Br)cc4)nc4ccccn34)CC2C1` (configuration not stated), for which the pIC50 was 6.13 in test [1] and 5.43 in test [2].

By pIC50 is commonly meant the negative decadic logarithm of the IC50, by convention in mol/L. A higher pIC50 goes with a low IC50.

(Values after ChEMBL document CHEMBL5727303, “Substituted perhydropyrrolo[3,4-c]pyrrole derivatives and the use of same” (2019).)
